Source: publication PMC4102417 (PLoS Neglected Tropical Diseases, 2014)
Where “and” joins values, the source holds several entries; their conditions need not be identical. Equal entries are not always repeated. Structures can show the parent of a compound that is named as a salt. Where two headings read alike, the source gives them in different places.

Legend:
[1] = system: T. cruzi (Tulahuen strain); assay: microbe, parasite or virus in culture; format: cell-based, Trypanosoma cruzi; conditions: for T. cruzi % growth @ 10 uM (Amastigotes) / activity at 10 µM: Table S2; for activity at 10 µM / EC50: Trypanosoma cruzi, TULAHUEN, Fibroblast; for activity at 10 µM: 120 h, read-out: T. cruzi % growth @ 10 uM (Amastigotes); for EC50: read-out: T. cruzi EC50
Method: Compounds were tested against T. cruzi (Tulahuen strain) stably expressing the beta-galactosidase gene as previously described. […] Fibroblasts were plated at a density of 2×10^3 per well in 96 well tissue culture plates. After 24 hours of incubation, 1×10^4 trypomastigotes/well were added to the fibroblasts and incubated for 4 hours before addition of the test compounds from the Spectrum Collection (10 µM final concentration). Cultures were incubated at 37°C for 5 days, then developed with chlorophenol red β-D-galactopyranoside as previously described. The percent inhibition is reported with standard deviation of the mean. […] Z-prime values were calculated for each 96-well plate based on positive (4 wells) and negative controls (4 wells).

3T3 fibroblast cells = assay: in vitro; format: cell-based, murine; conditions: 10 uM, Table S2; for activity at 10 µM: Mus musculus, NIH3T3, 72 h, read-out: Mammalian (3T3) cell % growth at 10 uM

| Compound | activity at 10 µM [1] | activity at 10 µM (3T3 fibroblast cells) | also measured |
| --- | --- | --- | --- |
| CN1CCc2c(c3ccccc3n2Cc2ccccc2)C1.O=S(=O)(O)c1cccc2c(S(=O)(=O)O)cccc12 [MEBHYDROLIN NAPHTHALENESULFONATE, 5-benzyl-2-methyl-1H,2H,3H,4H,5H-pyrido[4,3-b]indole; naphthalene-1,5-disulfonic acid] | – | – | T. cruzi % growth @ 10 uM (Amastigotes) [1]: 3.3%; Mammalian (3T3) cell % growth at 10 uM (3T3 fibroblast cells): 100% |
| CN(C)CCCN1c2ccccc2Sc2ccc(Cl)cc21 [CHLORPROMAZINE, [3-(2-chloro-10H-phenothiazin-10-yl)propyl]dimethylamine] | 14.2% | 99.3% | – |
| CCN(CC)CCOc1ccc(C(=C(Cl)c2ccccc2)c2ccccc2)cc1 [CLOMIPHENE, {2-[4-(2-chloro-1,2-diphenylethenyl)phenoxy]ethyl}diethylamine] | 12.9% | 100% | – |
| CC(C)CCCC(C)C1CCC2C3CC(=O)C4CC(O)CCC4(C)C3CCC12C (stereo not drawn) [5alpha-CHOLESTAN-3beta-OL-6-ONE, 5-hydroxy-2,15-dimethyl-14-(6-methylheptan-2-yl)tetracyclo[8.7.0.0^{2,7}.0^{11,15}]heptadecan-8-one] | 7.8% | 100% | – |
| CC1(C)C(=O)C=CC2(C)C1CC(=O)C1(C)C2CCC2(C)C(c3ccoc3)OC(=O)C3OC321 (centres unmarked) [DEACETOXY-7-OXOGEDUNIN, 7-(furan-3-yl)-1,8,12,16,16-pentamethyl-3,6-dioxapentacyclo[9.8.0.0^{2,4}.0^{2,8}.0^{12,17}]nonadec-13-ene-5,15,19-trione] | 4.9% | 75.8% | – |
| COC(=O)CCC(C)C1CCC2C3C(O)CC4CC(O)CCC4(C)C3CC(O)C12C (centres unmarked) [CHOLIC ACID, METHYL ESTER, methyl 4-{5,9,16-trihydroxy-2,15-dimethyltetracyclo[8.7.0.0^{2,7}.0^{11,15}]heptadecan-14-yl}pentanoate] | 22.6% | 81% | – |
| CC(=O)N1CCN(c2ccc(OC[C@H]3CO[C@](Cn4ccnc4)(c4ccc(Cl)cc4Cl)O3)cc2)CC1 [KETOCONAZOLE, 1-[4-(4-{[(2R,4S)-2-(2,4-dichlorophenyl)-2-(1H-imidazol-1-ylmethyl)-1,3-dioxolan-4-yl]methoxy}phenyl)piperazin-1-yl]ethan-1-one] | 2.1% | 100% | EC50 ([1]; Table S2, amastigotes): 0.3 nM; EC50 [1]: 1 nM |
| CCN(CC)CCOc1ccc2c(c1)C(=O)c1cc(OCCN(CC)CC)ccc1-2 [TILORONE, 2,7-bis[2-(diethylamino)ethoxy]-9H-fluoren-9-one] | 7.8% | 89% | – |
| CC(C)c1c(O)ccc2c1CCC1C(C)(C)CCCC21C (centres unmarked) [TOTAROL, 4b,8,8-trimethyl-1-(propan-2-yl)-4b,5,6,7,8,8a,9,10-octahydrophenanthren-2-ol] | 21.3% | 67.4% | – |
| C=C(C)C1CCC2(CO)CCC3(C)C(CCC4C5(C)CCC(O)C(C)(C)C5CCC43C)C12 (centres unmarked) [BETULIN, 5-(hydroxymethyl)-1,2,14,18,18-pentamethyl-8-(prop-1-en-2-yl)pentacyclo[11.8.0.0^{2,10}.0^{5,9}.0^{14,19}]henicosan-17-ol] | 9.7% | 100% | – |
| CC(C)C(C)/C=C/C(C)C1CCC2C3=CC=C4CC(O)CCC4(C)C3CCC21C (centres unmarked) [ERGOSTEROL, 14-[(3E)-5,6-dimethylhept-3-en-2-yl]-2,15-dimethyltetracyclo[8.7.0.0^{2,7}.0^{11,15}]heptadeca-7,9-dien-5-ol] | 6% | 99.6% | – |
| COc1ccc(C(=O)c2ccc(O)cc2)c(O)c1O [2,3,4'-TRIHYDROXY-4-METHOXYBENZOPHENONE] | 3.6% | 86.8% | – |
| COC1CC(OC2C(C)C(=O)OC(C)C(C)C(O)C(C)C(=O)C3(CO3)CC(C)C(OC3OC(C)CC(N(C)C)C3O)C2C)OC(C)C1O (centres unmarked) [OLEANDOMYCIN PHOSPHATE, 14-{[4-(dimethylamino)-3-hydroxy-6-methyloxan-2-yl]oxy}-6-hydroxy-12-[(5-hydroxy-4-methoxy-6-methyloxan-2-yl)oxy]-5,7,8,11,13,15-hexamethyl-1,9-dioxaspiro[2.13]hexadecane-4,10-dione; phosphoric acid] | 15.7% | 100% | – |
| CCCCC1C(=O)N(c2ccccc2)N(c2ccc(O)cc2)C1=O (centres unmarked) [OXYPHENBUTAZONE, 4-butyl-1-(4-hydroxyphenyl)-2-phenylpyrazolidine-3,5-dione] | 3.7% | 72.8% | EC50 [1]: 12000 nM |
| COC(=O)c1cc(O)c(=O)c2c(O)c(O)ccc2c1 [methyl 3,4,6-trihydroxy-5-oxo-5H-benzo[7]annulene-8-carboxylate] | 18.2% | 92.2% | – |
| CC(=O)OC1CC2C(C)(C)C(=O)CCC2(C)C2CCC3(C)C(c4ccoc4)OC(=O)C4OC43C12C (centres unmarked) [DIHYDROGEDUNIN, 7-(furan-3-yl)-1,8,12,16,16-pentamethyl-5,15-dioxo-3,6-dioxapentacyclo[9.8.0.0^{2,4}.0^{2,8}.0^{12,17}]nonadecan-19-yl acetate] | 5.8% | 81.4% | – |

| Compound | activity at 10 µM [1] | activity at 10 µM (3T3 fibroblast cells) | also measured |
| --- | --- | --- | --- |
| CC1CCC2(NC1)OC1CC3C4CCC5CC(O)CCC5(C)C4CCC3(C)C1C2C (centres unmarked) [TOMATIDINE, 5',7,9,13-tetramethyl-5-oxaspiro[pentacyclo[10.8.0.0^{2,9}.0^{4,8}.0^{13,18}]icosane-6,2'-piperidine]-16-ol hydrochloride] | 8.5% | 100% | – |
| N#Cc1nn(-c2c(Cl)cc(C(F)(F)F)cc2Cl)c(N)c1[S+]([O-])C(F)(F)F (centres unmarked) [FIPRONIL, 5-amino-1-[2,6-dichloro-4-(trifluoromethyl)phenyl]-4-(trifluoromethane)sulfinyl-1H-pyrazole-3-carbonitrile] | 3.7% | 100% | – |
| O=c1c(-c2ccc(O)cc2)coc2cc(O)cc(O)c12 [GENISTEIN, 5,7-dihydroxy-3-(4-hydroxyphenyl)-4H-chromen-4-one] | 6.4% | 100% | – |
| Oc1cc2c(cc1O)C1c3ccc(O)c(O)c3OCC1(O)C2 (centres unmarked) [HAEMATOXYLIN, 8-oxatetracyclo[8.7.0.0^{2,7}.0^{12,17}]heptadeca-2,4,6,12,14,16-hexaene-5,6,10,14,15-pentol] | 3.7% | 100% | – |
| 1-methyl-9H-pyrido[3,4-b]indol-7-ol hydrochloride [HARMOL] | – | – | T. cruzi % growth @ 10 uM (Amastigotes) [1]: 4.4%; Mammalian (3T3) cell % growth at 10 uM (3T3 fibroblast cells): 71.4% |
| COc1cc2c(cc1OC)-c1cc3ccc(OC)c(OC)c3c[n+]1CC2.[Cl-] [PALMATINE, 3,4,10,11-tetramethoxy-7,8-dihydro-6000000l^5-azatetraphen-6-ylium l^3-chloridyl] | – | – | T. cruzi % growth @ 10 uM (Amastigotes) [1]: 8.1% and 11.5%; Mammalian (3T3) cell % growth at 10 uM (3T3 fibroblast cells): 100.0% and 95.9% |
| CC1=CC(=O)C2C(C)(C)CCCC2(C)C1(O)CCc1ccoc1 (centres unmarked) [SOLIDAGENONE, 4-[2-(furan-3-yl)ethyl]-4-hydroxy-3,4a,8,8-tetramethyl-1,4,4a,5,6,7,8,8a-octahydronaphthalen-1-one] | 15.1% | 75.8% | – |
| COc1ccc2cc3[n+](cc2c1OC)CCc1cc2c(cc1-3)OCO2 [BERBERINE, 16,17-dimethoxy-5,7-dioxa-13$l^5-azapentacyclo[11.8.0.0^{2,10}.0^{4,8}.0^{15,20}]henicosa-1(21),2,4(8),9,13,15,17,19-octaen-13-ylium] | 4.1% | 75.8% | – |
| COC(=O)CCC(C)C1CCC2C3CCC4CC(O)CCC4(C)C3CC(O)C12C (centres unmarked) [METHYL DEOXYCHOLATE, methyl 4-{5,16-dihydroxy-2,15-dimethyltetracyclo[8.7.0.0^{2,7}.0^{11,15}]heptadecan-14-yl}pentanoate] | 22.9% | 100% | – |
| Cc1cccc2c3c(ccc12)C1=C(C(=O)C3=O)C(C)CO1 (centres unmarked) [DIHYDROTANSHINONE I, 6,14-dimethyl-12-oxatetracyclo[8.7.0.0^{2,7}.0^{11,15}]heptadeca-1(10),2(7),3,5,8,11(15)-hexaene-16,17-dione] | 4.8% | 77.1% | – |
| C=CC(C1=CC(=O)C(OC)=CC1=O)c1ccc(O)cc1 (centres unmarked) [DALBERGIONE, 4-METHOXY-4'-HYDROXY-, 2-[1-(4-hydroxyphenyl)prop-2-en-1-yl]-5-methoxycyclohexa-2,5-diene-1,4-dione] | 5.1% | 94.8% | – |
| COc1cc(O)c2c(c1)C(=O)c1cc(C)cc(O)c1C2=O [PHYSCION, 1,8-dihydroxy-3-methoxy-6-methyl-9,10-dihydroanthracene-9,10-dione] | 9.2% | 96.8% | – |
| COc1ccc(CCN2CCC(Nc3nc4ccccc4n3Cc3ccc(F)cc3)CC2)cc1 [ASTEMIZOLE, 1-[(4-fluorophenyl)methyl]-N-{1-[2-(4-methoxyphenyl)ethyl]piperidin-4-yl}-1H-1,3-benzodiazol-2-amine] | 11.6% | 100% | – |
| CCN(CCCCOC(=O)c1ccc(OC)c(OC)c1)C(C)Cc1ccc(OC)cc1 (centres unmarked) [MEBEVERINE, 4-{ethyl[1-(4-methoxyphenyl)propan-2-yl]amino}butyl 3,4-dimethoxybenzoate] | 4.1% | 92.3% | – |
| O=c1c(O)c(-c2ccc(O)c(O)c2)oc2c(OC3OC(CO)C(O)C(O)C3O)c(O)cc(O)c12 (centres unmarked) [GOSSYPIN, 2-(3,4-dihydroxyphenyl)-3,5,7-trihydroxy-8-{[3,4,5-trihydroxy-6-(hydroxymethyl)oxan-2-yl]oxy}-4H-chromen-4-one] | 17.7% | 100% | – |
